Values quoted from earlier work as cited in patent US20250313903A1, “NEOANTIGEN IMMUNOTHERAPY” (Gradalis, Inc., priority 2023, published 2025).
Like-named read-outs stand apart in the source and are kept apart here.

Legend:
[1] = system: previously treated, PD-L1 positive, advanced NSCLC; settings: in vivo
[2] = system: advanced renal cell cancer; settings: in vivo
[3] = system: Stage IIIb/IV newly diagnosed ovarian cancer; settings: follow up at 74 months
[4] = system: newly diagnosed advanced high-grade ovarian cancer
[5] = system: newly diagnosed stage III/IV ovarian cancer
[6] = system: extensive stage SCLC, 1st line setting; settings: atezolizumab added to carboplatin and etoposide, vs. placebo
[7] = system: metastatic NSCLC, 2nd line post platinum-based chemotherapy; settings: regardless of PD-L1 expression or histology
[8] = system: triple-negative breast cancer; settings: PD-L1 (TPS) ≥1% cut-off
[9] = system: advanced urothelial carcinoma, 2nd line setting; settings: in vivo
[10] = system: chemo-refractory, metastatic Merkel cell carcinoma
[11] = system: stage III-IV ovarian cancer
[12] = system: advanced renal cell carcinoma; settings: Avelumab + Axitinib vs. sunitinib
[13] = system: locally advanced, metastatic squamous cell carcinoma
[14] = system: recurrent or metastatic cervical cancer after platinum-based chemotherapy; settings: vs. investigator-choice chemotherapy
[15] = system: primary advanced or recurrent dMMR or MSI-H endometrial cancer; settings: dostarlimab-gxly vs. placebo + carboplatin-paclitaxel
[16] = system: advanced/metastatic urothelial carcinoma, platinum-refractory
MSI-H/dMMR tumors = settings: in vivo
[17] = system: metastatic melanoma progressed after anti-CTLA-4 therapy; settings: in vivo
[18] = system: persistent/recurrent cervical cancer; settings: in vivo
[19] = system: lymph-node positive or metastatic melanoma after complete resection; settings: adjuvant
[20] = system: relapsed/refractory metastatic squamous cell cancer of head and neck; settings: second-line
[21] = system: small-cell lung cancer (SCLC)
[22] = system: persistent/recurrent cervical cancer; settings: in vivo; remark: listed apart in the source
[23] = system: non-small cell lung cancer (NSCLC); settings: progressed after platinum-doublet chemotherapy
metastatic melanoma = settings: previously untreated, wild-type BRAF (CheckMate-067 and CheckMate-069)
[24] = system: advanced metastatic non-small cell lung cancer (NSCLC); settings: one patient, EGFR exon 19 deletion; ongoing greater than 1 year
[25] = system: refractory/relapse primary mediastinal large B-cell lymphoma; settings: in vivo
[26] = system: advanced non-colorectal dMMR tumors; settings: in vivo
[27] = system: refractory classical Hodgkin's lymphoma; settings: in vivo
[28] = system: recurrent or metastatic head and neck squamous cell cancer; settings: first-line; monotherapy for CPS ≥1% or with chemotherapy
[29] = system: unresectable/metastatic urothelial cancer, cisplatin-ineligible; settings: 1st line, CPS ≥10
[30] = system: untreated, PD-L1 ≥50 advanced NSCLC; settings: vs. chemotherapy
[31] = system: unresectable/metastatic urothelial cancer; 2nd line; settings: for median OS: vs. chemotherapy
[32] = system: unresectable or metastatic, untreated melanoma; settings: for 24-months OS / 24-months PFS: PD-L1 ≥1%; for 1-year OS / PFS (1-year PFS in Table 3): in vivo
[33] = system: untreated, non-squamous NSCLC without sensitizing mutations; settings: pembrolizumab plus chemotherapy vs. chemotherapy
[34] = system: MSI-H, dMMR or TMB-H solid tumors
NSCLC = settings: irrespective of PD-L1 status
[35] = system: persistent/recurrent or metastatic cervical cancer with PD-L1 CPS ≥1; settings: pembrolizumab vs. placebo + paclitaxel/platinum +/- bevacizumab
[36] = in vivo
[37] = system: untreated unresectable/metastatic melanoma; settings: combination vs. ipilimumab alone
[38] = system: unresectable, previously treated, late-stage melanoma; settings: 3 mg/kg every 3 weeks, alone or with gp100

## CC(=O)O[C@@]12CO[C@@H]1C[C@H](O)[C@@]1(C)C(=O)[C@H](O)C3=C(C)[C@@H](OC(=O)[C@H](O)[C@@H](NC(=O)OC(C)(C)C)c4ccccc4)C[C@@](O)([C@@H](OC(=O)c4ccccc4)[C@H]21)C3(C)C [docetaxel]
[1]
  OS: 8.5 months

## CO[C@H]1C[C@@H]2CC[C@@H](C)[C@@](O)(O2)C(=O)C(=O)N2CCCC[C@H]2C(=O)O[C@H]([C@H](C)C[C@@H]2CC[C@@H](OCCO)[C@H](OC)C2)CC(=O)[C@H](C)/C=C(\C)[C@@H](O)[C@@H](OC)C(=O)[C@H](C)C[C@H](C)/C=C/C=C/C=C/1C [everolimus]
[2]
  OS: 19.6 months

## NC(=O)c1cccc2cn(-c3ccc([C@@H]4CCCNC4)cc3)nc12 [niraparib]
[3]; HRP
  OS HR: 0.93
[3]; overall
  OS HR: 1.01

## CNCc1ccc(-c2[nH]c3cc(F)cc4c3c2CCNC4=O)cc1 [rucaparib]
[4]; BRCA-wt/LOH low patients
  PFS: 12.1 months
[4]; in vivo
  PFS: 20.2 months

## Atezolizumab: PD-L1 blocking antibody
[5]; HRP subgroup
  PFS HR vs. placebo arm: 0.82
[5]; PD-L1+ patients
  PFS: 20.8 months
  PFS HR vs. placebo arm: 0.80
[5]; atezolizumab with carboplatin plus paclitaxel and bevacizumab
  median PFS: 19.5 months
[5]; with carboplatin plus paclitaxel and bevacizumab
  PFS HR vs. placebo arm: 0.92
[6]
  median OS: Median OS: 12.3 months
  median PFS: Median PFS: 5.2 months
[6]; listed as atezolizumab
  median OS: 12.3 months
  median PFS: 5.2 months
[7]
  OS (in words): OS benefit
[8]
  OS (in words): OS benefit

## Avelumab: PD-L1 blocking antibody
[9]
  24-month OS: OS: 20.1%
  CR: 4.1%
  ORR: ORR: 16.5%; CR:
  PR: 12.4%
  median DoR: Median DoR: 20.5 months
  median OS: Median OS: 7.0 months
  median PFS: Median PFS: 1.6 months
[10]; in vivo
  CR, patients: 8/88
  ORR, responders/patients: 28/88
[10]; regardless of PD-L1
  ORR: ORR: 31.8%
[11]; avelumab in combination with chemotherapy
  PFS HR vs. chemotherapy alone: 1.14
[11]; avelumab only group
  median PFS: 16.8 months
[11]; combination with chemotherapy
  median PFS: 18.1 months
[11]; single agent avelumab maintenance
  PFS HR vs. chemotherapy alone: 1.43
[12]; PD-L1+
  ORR: 55.2%
  median PFS: 13.8 months
[12]; overall population
  median PFS: median PFS: 13.8

## Cemiplimab
[13]; Phase 1 expansion cohorts
  ORR: 50%
[13]; Phase 2 metastatic-disease cohort
  response rates: 47
[14]
  ORR: ORR: 16.4% vs. 6.3%
  median OS: Median OS: 12.0 months
  median PFS: HR: 0.75, p < 0.001

## Dostarlimab-gxly: anti-PD-1 checkpoint inhibitor
[15]
  median PFS: Median PFS: 30.3 months

## Durvalumab: PD-L1 blocking antibody
[16]; PD-L1 negative
  ORR: 0% (PD-L1 negative)
[16]; PD-L1 negative, listed as durvalumab
  ORR: none
[16]; PD-L1 positive
  ORR: patients), 46.4%
[16]; PD-L1 positive, listed as durvalumab
  ORR: 46.4%
[16]; all patients
  ORR: ORR: 31% (all
[16]; all patients, listed as durvalumab
  ORR: 31%

## Nivolumab: fully humanized IgG4 antibody targeting PD-1
MSI-H/dMMR tumors
  ORR: 31%
[17]
  response rate: 32%
[18]
  ORR: ORR: 26.3%
  median OS: Median OS: 21.9 months
[19]
  12-month RFS: 70.5%
[20]
  OS: 7.5 months
[2]
  OS: 25.0 months
[21]; in vivo
  24-months OS rate: 17.9%
  median OS: 4.7 months
[21]; progressed on platinum and at least one other line
  response rate: 11.6%
[22]
  6-months OS: 6-months OS: 78%
  6-months PFS: 6-months PFS: 16%;
  median duration of SD: SD: 5.7 months
[23]
  ORR: 19-20%
  median OS: 9.2-12.2 months
  median PFS: 2.3-3.5 months
Metastatic melanoma
  response rate: 40%
[24]
  response (in words): durable partial response

## Pembrolizumab: fully humanized IgG4 antibody targeting PD-1
[25]
  complete response rate: 13%
  response rate: 45%
[26]
  ORR across tumor types: 34%
  complete response, patients: 10%
[27]
  complete response: 22%
  median duration of response: 11 months
  response rate: 69%
[28]
  OS: 12.3 months
Metastatic NSCLC; PD-L1 negative tumors
  responding tumors: 15%
Metastatic NSCLC; PD-L1 positivity
  response rate: 45%
[29]
  ORR: ORR: 38%
[29]; listed as pembrolizumab
  ORR: 38%
[30]
  6-months OS: 80.2% vs. 72.4%;
  ORR: ORR: 44.8% vs. 27.8%
  median PFS: Median PFS: 10.3 months
[30]; listed as pembrolizumab
  6-months OS: 80.2%
  ORR: 44.8%
  median PFS: 10.3 months
[31]; in vivo
  OS benefit compared to chemotherapy: 3 months
[31]
  median OS: Median OS: 10.3 months
[31]; listed as pembrolizumab
  median OS: 10.3 months
[32]
  24-months OS: 58%
  24-months PFS: 33%
[1]
  OS: 10.4 months
[33]
  PFS HR: (HR: 0.53; p = 0.0049)
  median PFS: Median PFS: 19.0 months
[33]; listed as pembrolizumab
  median PFS: 19 months
[34]; 90 patients with advanced endometrial cancer
  ORR, responders/patients: 43/90
[34]; 98 patients with advanced cervical cancer
  ORR, responders/patients: 12/98
[34]; MSI-H or dMMR solid tumors
  ORR: studies: ORRs ~40%
[34]; MSI-H or dMMR solid tumors, listed as pembrolizumab
  ORR: ~40%
[34]; TMB-H patients (Keynote-158)
  ORR: 29%
[34]; TMB-low patients (Keynote-158)
  ORR: 6%
NSCLC
  response rate, PFS and OS vs. chemotherapy (in words): consistent response rate, PFS and OS advantage
[35]
  median DOR: 18 vs. 10.4 months
  median PFS: Median PFS: 10.4 months

## bevacizumab: VEGF inhibitor
Ovarian cancer; BRCA-m and HRD pattern disease
  survival: 62.6 months
Ovarian cancer; patients with HRP tumors
  survival: 43.4 months
[36]
  patients developing Grade 3/4 product related adverse events: over 65%

## ipilimumab: FDA approved CTLA-4 inhibitor
[19]
  12-month RFS: 60.8%
[32]
  24-months OS: 45%
  24-months PFS: 13%
  1-year OS: 58.2%
  PFS (1-year PFS in Table 3): 26.5%
[32]; listed as Ipilimumab
  1-year OS: (vs. 58.2%;
  PFS (1-year PFS in Table 3): 26.5%; p < 0.001);
[37]
  median PFS: 4.4 months
[38]
  OS vs. gp100 alone (in words): OS advantage
